Molecules are shown by their SMILES.

Data set [1] can be described thus: reactivity with cysteine hydropolysulfide, adducts by LC-ESI-MS/MS. Type of data set: physicochemical. As to conditions: 1 mM agent, one hour at 37° C., CysS-(S)n—H from 100 μM cystine and 300 μM Na2S2; FIG. 10. The protocol:
The reactivity of TME-IAM with respect to cysteine hydropolysulfide [CysS-(S)n—H] was verified as compared to HPE-IAM as indicated below.
CysSSH/CysS-(S)n—H which was prepared by incubating 100 μM cystine and 300 μM Na2S2 for 5 minutes at 37° C. was made to react with TME-IAM or HPE-IAM (1 mM each) for one hour at 37° C.
Next, its reaction mixture was provided to the LC-ESI-MS/MS analysis and respective adducts for CysSH/CysS-(S)n—H and HS^− (bis-S-adduct) were detected.
Incidentally, the concentration of each compound as sulfur is calculated according to the following formula: a concentration as sulfur=a concentration as the compound×the number of sulfur atoms in the compound (for example, in a case of CysSSH, the concentration as sulfur=2×[CysSSH]). Referring to FIG. 10, the concentrations of each adduct as the compound and sulfur are indicated as a bar with slanted stripes and a bar without stripes, respectively.

Data set [2] is described as follows: stabilization test for active sulfur molecules (residual GS-SS-SG by LC-MS/MS). Type of data set: physicochemical. The note with it: 1 mM alkylating agent, 10 μM GS-SS-SG, pH 7.0, 37° C., FIG. 6; for active sulfur molecules stabilization (inhibition of GS-SS-SG autolysis): up to 4 hours. How it is done: Next, the stabilization effect of active sulfur molecules of each alkylating agent containing the new tyrosine derivative was evaluated. Oxidized glutathione tetrasulfide (GS-SS-SG) was used as a model compound for the active sulfur molecules.
The following were mixed: 50 μL of 200 mM phosphate buffer (pH 7.0) (final concentration: 100 mM), 5 μL of 20 mM alkylating agent (TME-IAM, HPE-IAM, MBB, IAM) or DMSO (final concentration: 1 mM), 10 μL of 100 μM GS-SS-SG (final concentration: 10 μM), and 35 μL of ultrapure water; and the mixture was incubated at 37° C. while shielding light. One, 2, 3, and 4 hours after the start of the reaction, 10 μL of the reaction solution and 90 μL of 0.1% formic acid were mixed, thereby terminating the reaction. By performing the LC-MS/MS by using unreacted 1 μM GS-SS-SG as standard, a residual amount of the GS-SS-SG in the reaction solution was analyzed.

Data set [3] is described as follows: reactivity with hydrogen sulfide (Na2S), adducts by LC-ESI-MS/MS. Type of data set: physicochemical. The note with it: 0.1 mM or 1 mM agent, 0.1 mM Na2S, one hour at 37° C.; FIG. 12. The protocol: The incubation of 0.1 mM or 1 mM TME-IAM (right side in FIG. 12) or MBB (left side in FIG. 12) was performed for one hour at 37° C. under the existence of 0.1 mM Na2S. As a result, the HS-adduct and the bis-S-adduct in the reaction mixture were respectively detected by the LC-ESI-MS/MS analysis.
The reaction mixture was separated by the Alliance e2695 system equipped with a YMC-Triart C18 column (inside diameter. 50×2.0 mm) and was then eluted with a linear gradient (30-99% for 5 minutes) by using methanol as a mobile phase under the existence of 0.1% FA (formic acid) at a flow speed of 0.3 mL/min at 40° C.

The conditions of data set [4]: 37° C., neutral pH (pH 7.0); stated as known; cited from earlier work.
The nature of data set [5]: GS-SS-SG protection effect of N-iodoacetyl tyrosine. The note with it: compared with TME-IAM; FIG. 13. Type of data set: physicochemical. From the text: Incidentally, N-iodoacetyl tyrosine is expressed with the following chemical formula.
A short description of data set [6]: reactivity of alkylating agents with cysteine (LC-MS/MS of residual cysteine and cysteine adducts). Type of data set: physicochemical. The note with it: 1 mM alkylating agent, 0.1 mM cysteine, phosphate buffer pH 7.5, 37° C., 1, 3 and 8 hours; FIG. 5. How it is done:
Next, the reactivity between the tyrosine derivative according to the present invention and the active sulfur species was examined.
The following were mixed: 50 μL of 200 mM phosphate buffer (pH 7.5) (final concentration: 50 mM), 2 μL of 100 mM alkylating agent (TME-IAM, TEE-IAM, NAT-IAM, HPE-IAM) or DMSO (final concentration: 1 mM), 2 μL of 10 mM cysteine (final concentration: 0.1 mM), and 146 μL of ultrapure water, and the mixture was incubated at 37° C. while shielding light. One, 3, and 8 hours after the start of the reaction, 10 μL of the reaction solution and 90 μL of 0.1% formic acid were mixed, thereby terminating the reaction. By performing the LC-MS/MS by using unreacted 10 μM cysteine as standard, a residual amount of the cysteine in the reaction solution was analyzed and the generation of cysteine adducts by various kinds of alkylating agents was analyzed.

Data set [7] can be described thus: pH influence test for the GS-SS-SG protection effect. Type of data set: physicochemical. The note with it: one hour, FIG. 7. How it is done:
Next, the pH influence of the GS-SS-SG protection effect of TME-IAM was evaluated. It has been clarified that the active sulfur molecules GS-SS-SG are stable under acid conditions, while they are very unstable under alkali conditions.
The following were mixed: 50 μL of 200 mM phosphate buffer (pH 7.0, 7.5, 8.0) (final concentration: 100 mM) and 5 μL of 20 mM TME-IAM solution (final concentration: 1 mM), 10 μL of 100 μM GS-SS-SG (final concentration: 10 μM), and 35 μL of ultrapure water; and the mixture was incubated at 37° C. while shielding light. One hour after the start of the reaction, 10 μL of the reaction solution and 90 μL of 0.1% formic acid were mixed, thereby terminating the reaction. By performing the LC-MS/MS analysis by using unreacted 1 μM GS-SS-SG as standard, a residual amount of GS-SS-SG in the reaction solution was analyzed.

Data set [8] in a line: esterase-dependent by-product formation in mice liver homogenate in 80% methanol. Type of data set: in vitro ADME. As to conditions: mice liver tissues homogenized in 80% methanol containing 1 mM TME-IAM, one hour at 37° C.; FIG. 11B. How it is done:
(§1) The following test was conducted with regard to cell permeability and esterase sensitivity of TME-IAM. FIG. 11 illustrates representative mass chromatographs of (A) HEK (human embryonic kidney) 293T cells and (B) mice liver homogenate which were processed with TME-IAM.
(§2) After processing the HEK 293T cells for one hour at 37° C. by using 1 mM TME-IAM, they were homogenized by ultrasonication in 80% methanol. The mice liver tissues were also homogenized by ultrasonication in 80% methanol containing 1 mM TME-IAM and were incubated for one hour at 37° C. After centrifugal separation of each of them, the obtained supernatant was collected and then diluted to 10 times by using 0.1% FA (formic acid).
(§3) Next, the mixture was made to undergo the LC-ESI-MS/MS analysis and individual by-products driving from TME-IAM, its glutathione adduct (GS-AM-TME), and esterase dependency cleavage were detected. They are Tyr-IAM ((2-iodoacetyl)-I-tyrosine) and GS-AM-Tyr (GSH adduct of (2-iodoacetyl)-1-tyrosine), respectively.
Accordingly, in order to evaluate the possibility of forming these derivatives when in vivo samples are used for the reactivity sulfur metabolome analysis, mice liver tissues were prepared in 80% methanol containing 1 mM TME-IAM, homogenized, and incubated for one hour at 37° C., and the obtained samples were analyzed by LC-ESI-MS/MS.

Data set [9] deals with HEK (human embryonic kidney) 293T cells. Put plainly: cell permeability and esterase sensitivity in HEK 293T cells. As to conditions: 1 mM TME-IAM, one hour at 37° C., FIG. 11A. Type of data set: cell-based. The protocol: as §1, §2, §3
Data set [10] in a line: stabilization of oxidized glutathione polysulfides with different numbers of sulfur atoms. Type of data set: physicochemical. The note with it: 1 mM TME-IAM, 10 μM GS-SSS-SG, pH 7.0, 37° C., 30 minutes after the processing; FIG. 9. How it is done:
It has been made clear that compounds with different quantities of sulfur atoms included in the molecules exist in the active sulfur molecules. In general, the compound including a larger number of sulfur atoms has higher reactivity and has unstable molecules. So, the active sulfur molecules stabilization effect of TME-IAM was analyzed by using the active sulfur molecules with different quantities of the contained sulfur atoms. For this analysis, oxidized glutathione pentasulfide (GS-SSS-SG) and oxidized glutathione trisulfide (GS-S-SG) were used in addition to GS-SS-SG.
The following were mixed: 50 μL of 200 mM phosphate buffer (pH 7.0) (final concentration: 100 mM) and 5 μL of […] TME-IAM solution (final concentration: 1 mM), 10 μL of 100 μM oxidized form glutathione polysulfide (GS-SSS-SG, GS-SS-SG, GS-S-SG) (final concentration: 10 μM), and 35 μL of ultrapure water; and the mixture was incubated at 37° C. while shielding light. […] By performing the LC-MS/MS analysis by using each unreacted 1 μM oxidized form glutathione polysulfide (GS-SSS-SG, GS-SS-SG, GS-S-SG) as standard, a residual amount of the oxidized form glutathione polysulfide GS-SSS-SG, GS-SS-SG, GS-S-SG) in the reaction solution was analyzed.

Data set [11] in a line: reaction mole ratio (processing concentration) influence test for the GS-SS-SG protection effect. Type of data set: physicochemical. The note with it: 400-fold higher concentration than GS-SS-SG (10 μM), pH 7.0, 37° C., one hour; FIG. 8. The protocol:
In order to detect the active sulfur molecules with high sensitivity, it is important to form a stable derivative. In order to do so, it is necessary to add a high-concentration alkylating agent to a specimen; and it is known that the addition of the high-concentration alkylating agent promotes the decomposition of the active sulfur molecules (NPL 1). So, processing concentration dependency of the active sulfur molecules stabilization activity of TME-IAM was analyzed by using the active sulfur molecules GS-SS-SG.
The following were mixed: 50 μL of 200 mM phosphate buffer (pH 7.0) (final concentration: 100 mM) and 5-20 μL of a TME-IAM solution (final concentration: 0.25, 0.5, 1, 2, 4 mM), 10 μL of 100 μM GS-SS-SG (final concentration: 10 μM), and 20-35 μL of ultrapure water; and the mixture was incubated at 37° C. while shielding light. One hour after the start of the reaction, 10 μL of the reaction solution and 90 μL of 0.1% formic acid were mixed, thereby terminating the reaction. By performing the LC-MS/MS analysis by using unreacted 1 μM GS-SS-SG as standard, a residual amount of GS-SS-SG in the reaction solution was analyzed.

With `O=C(CI)NCCc1ccc(O)cc1` [HPE-IAM, f-(4-hydroxyphenyl) ethyl iodoacetamide, reference compound], the “amount of HS− (bis-S adduct) decomposition product” value in data set [1] is listed as “prominently higher than the amount of the product detected by using TME-IAM”. Besides, the “active sulfur molecules stabilization (inhibition of GS-SS-SG autolysis)” value in [2] was “inhibited significantly”.

For `Cc1c(C)n2c(CBr)c(C)c(=O)n2c1=O` [MBB, monobromobimane, reference compound], in data set [3], the “reactivity with hydrogen sulfide” value is “react with hydrogen sulfide and form the bis-S-adduct”. Besides, in [4], the “effect on decomposition of GS-SS-SG” value was “decomposition is promoted”.

On to `O=C(CI)N[C@@H](Cc1ccc(O)cc1)C(=O)O` [N-iodoacetyl tyrosine], for which the GS-SS-SG protection effect entry in data set [5] is reported as “same level of the GS-SS-SG protection effect as that of TME-IAM”.

With `CC(=O)NC(Cc1ccc(O)cc1)C(=O)NC(=O)CI` (stereo not drawn) [NAT-IAM], in [6], the “reactivity with the thiol group (cysteine)” value (shortened to “reactivity … (cysteine)”) was “lower reactivity with cysteine than that of TME-IAM and HPE-IAM”.

For the molecule `CCOC(=O)C(Cc1ccc(O)cc1)NC(=O)CI` (stereo not drawn) [TEE-IAM], in [6], the “reactivity … (cysteine)” value was “lower reactivity with cysteine than that of TME-IAM and HPE-IAM”.

Regarding `COC(=O)[C@H](Cc1ccc(O)cc1)NC(=O)CI` [TME-IAM, N-iodoacetyl tyrosine methyl ester], the “reactivity … (cysteine)” value in data set [6] was “same level of reactivity with the thiol group (cysteine) as that of HPE-IAM”. Also, the GS-SS-SG remained result in data set [7] (1 mM TME-IAM, 10 μM GS-SS-SG, weakly alkaline solution (pH 8.0), 37° C.) is on record as “approximately 70%”; in [2] (incubation for 4 hours) it was “approximately 80%”. Further, the “GS-SS-SG remaining compared with HPE-IAM” value in data set [7] (pH 8.0, 37° C.) was “higher value than that of the system to which the publicly known iodoacetamide derivative HPE-IAM was added”. Besides, the “reactivity with hydrogen sulfide” value in [3] was “react with hydrogen sulfide and form the bis-S-adduct”. Further, the “amounts of CysSSH and CysSSSH detected” value in [1] is “significantly larger than those detected by using HPE-IAM”. In addition, the “esterase-dependent by-product Tyr-IAM in samples” value in data set [8] is reported as “rarely detected”. Further, the cell permeability entry in data set [9] is on record as “can permeate through cell membranes”. For the same molecule, the “decomposition suppression of GS-SSS-SG” value in [10] is “predominant decomposition suppression”. Also, the “active sulfur molecules stabilization (inhibition of GS-SS-SG autolysis)” value in [2] was “high active sulfur molecules stabilization activity”. Also, the “reduction of GS-SS-SG at high alkylating agent concentration” value in [11] was “any significant reduction of GSSSSG was not observed”.
